Source: US6908913B2, “Carbapenem derivatives” (Meiji Seiki Kaisha, Ltd., priority 2000, dated 2005)
Values after ≈ are worked out from the molar mass of the structure shown.

How the values were obtained:
B. catarrhalis W-0500 = experiment: Antibiotic activities (MIC), agar dilution; assay type: cell-based; conditions: Moraxella catarrhalis, W0500, Sensitivity Disk agar-N+5% Horse blood, inoculant 10^6 CFU/ml, read-out: minimum inhibiting concentration (MIC)
Method: (§1) The minimum inhibiting concentrations (MIC, μg/ml) of representative compounds among the novel carbapenem derivatives according to the present invention to various pathogenic bacteria were measured in accordance with the method described in CHEMOTHERAPY, vol. 16, No. 1, 99, 1968. The culture medium for measurement was Sensitivity Disk agar-N+5% Horse blood, and the amount of inoculants was 10^6 CFU/ml.

E. coli NIHJ JC-2 = experiment: Antibiotic activities (MIC), agar dilution; assay type: cell-based; conditions: Escherichia coli, NIHJJC2, Sensitivity Disk agar-N+5% Horse blood, inoculant 10^6 CFU/ml, read-out: minimum inhibiting concentration (MIC)
Method: as §1

H. influenzae PRC44 = experiment: Antibiotic activities (MIC), agar dilution; assay type: cell-based; conditions: Haemophilus influenzae, Sensitivity Disk agar-N+5% Horse blood, inoculant 10^6 CFU/ml, read-out: minimum inhibiting concentration (MIC)
Method: as §1

K. pneumoniae PCI602 = experiment: Antibiotic activities (MIC), agar dilution; assay type: cell-based; conditions: Klebsiella pneumoniae, Sensitivity Disk agar-N+5% Horse blood, inoculant 10^6 CFU/ml, read-out: minimum inhibiting concentration (MIC)
Method: as §1

S. aureus 209P JC-1 = experiment: Antibiotic activities (MIC), agar dilution; assay type: cell-based; conditions: Staphylococcus aureus, Sensitivity Disk agar-N+5% Horse blood, inoculant 10^6 CFU/ml, read-out: minimum inhibiting concentration (MIC)
Method: as §1

[1] = test system: S. aureus M126 (methicillin-hyperresistant strain); experiment: Antibiotic activities (MIC), agar dilution; assay type: cell-based; conditions: Staphylococcus aureus, Sensitivity Disk agar-N+5% Horse blood, inoculant 10^6 CFU/ml, read-out: minimum inhibiting concentration (MIC)
Method: as §1

[2] = test system: S. aureus M126 HR (methicillin-hyperresistant strain); experiment: Antibiotic activities (MIC), agar dilution; assay type: cell-based; conditions: Staphylococcus aureus, Sensitivity Disk agar-N+5% Horse blood, inoculant 10^6 CFU/ml, read-out: minimum inhibiting concentration (MIC)
Method: as §1

[3] = test system: S. pneumoniae PRC9 (penicillin-hyperresistant strain); experiment: Antibiotic activities (MIC), agar dilution; assay type: cell-based; conditions: Streptococcus pneumoniae, Sensitivity Disk agar-N+5% Horse blood, inoculant 10^6 CFU/ml, read-out: minimum inhibiting concentration (MIC)
Method: as §1

[4] = test system: Staphylococcus aureus MF126 (MRSA); experiment: Therapeutic effect on mice subjected to general infection with MRSA; assay type: in vivo; conditions: cyclophosphamide-treated mice, subcutaneous with cilastatin 2 and 4 hours after infection, survival rate on seventh day
Method: The therapeutic effect of representative compounds among the novel carbapenem derivatives according to the present invention on mice subjected to general infection with MRSA were assayed by the following method, and the results are shown in Table 2. Specifically, cyclophosphamide (200 mg/kg) was administered intraperitoneally to mice (n=8), and, four days after the administration of cyclophosphamide, Staphylococcus aureus MF126 (MRSA) was inoculated intraperitoneally to infect the mice with MRSA. Cilastatin (1 mg/mouse) and the carbapenem compound in an indicated amount were subcutaneously administered two hours and four hours after the infection. ED50 was calculated based on the survival rate on the seventh day after the infection.

[5] = assay type: in vivo; conditions: intravenously, 1,000 mg/kg, ICR male mice, three mice per group
Method: The compound of Example 1 was administered intravenously to mice (ICR, male, each group consisting of three mice) in an amount of 2,000 mg/kg.
The compound of Example 2 was administered intravenously to mice (ICR, male, each group consisting of three mice) in an amount of 1,000 mg/kg.

[6] = Amount of inoculant: 2.8 × 10^6 CFU/mouse
[7] = Amount of inoculant: 5.9 × 10^6 CFU/mouse

| MIC (B. catarrhalis W-0500) [µg/mL] | MIC (E. coli NIHJ JC-2) [µg/mL] | MIC (H. influenzae PRC44) [µg/mL] | MIC (K. pneumoniae PCI602) [µg/mL] | MIC (S. aureus 209P JC-1) [µg/mL] | MIC [1] [µg/mL] | MIC [2] [µg/mL] | MIC [3] [µg/mL] | Compound | ED50 [4, 6] [mg/mouse] | survival in acute toxicity test [5] | ED50 ([4]; Amount of inoculant: 2.5 × 10^6 CFU/mouse) [mg/mouse] | ED50 ([4]; Amount of inoculant: 2.9 × 10^6 CFU/mouse) [mg/mouse] | ED50 [4, 7] [mg/mouse] |
| --- | --- | --- | --- | --- | --- | --- | --- | --- | --- | --- | --- | --- | --- |
| 0.031 | 0.125 | 0.031 | 0.25 | 0.016 | 1 | 8 | 0.063 | CC(=O)c1ncn2cc(C3=C(C(=O)[O-])N4C(=O)[C@H]([C@@H](C)O)[C@H]4[C@H]3C)sc12.[Na+] [Compound A, Sodium (1S,5R,6S)-2-(7-acetylimidazo[5,1-b]thiazol-2-yl)-6-((1R)-1-hydroxyethyl)-1-methyl-1-carbapen-2-em-3-carboxylate, reference compound] | – | – | – | – | – |
| < 0.025 | 3.13 | 0.1 | 3.13 | < 0.006 | 1.56 | 6.25 | 0.1 | C[C@@H](O)[C@H]1C(=O)N2C(C(=O)[O-])=C(c3cn4cnc(C(=O)c5ccccc5)c4s3)[C@H](C)[C@H]12.[Na+] [Compound B, Sodium (1S,5R,6S)-2-(7-benzoylimidazo[5,1-b]thiazol-2-yl)-6-((1R)-1-hydroxyethyl)-1-methyl-1-carbapen-2-em-3-carboxylate, reference compound] | – | – | – | – | – |
| 0.063 (≈ 0.21 µM) | 0.125 (≈ 0.418 µM) | 8 (≈ 26.7 µM) | 0.25 (≈ 0.835 µM) | 0.008 (≈ 0.0267 µM) | 4 (≈ 13.4 µM) | 64 (≈ 214 µM) | 0.25 (≈ 0.835 µM) | C[C@@H](O)[C@H]1C(=O)N2C(C(=O)O)=C(SCCN=CN)C[C@H]12 [Compound C, Imipenem, reference compound] | – | – | – | – | – |
| 0.016 | 1 | 0.031 | 1 | < 0.008 | 1 | 4 | 0.031 | C[C@@H](O)[C@H]1C(=O)N2C(C(=O)O)=C(c3cn4cnc(C(=O)c5cccnc5)c4s3)[C@H](C)[C@H]12 [Example 1, Sodium (1S,5R,6S)-6-((1R)-1-hydroxyethyl)-1-methyl-2-[7-(pyridin-3-yl)carbonylimidazo[5,1-b]thiazol 2-yl]-1-carbapen-2-em-3-carboxylate] | – | – | – | – | – |
| – | – | – | – | – | – | – | – | C[C@@H](O)[C@H]1C(=O)N2C(C(=O)O)=C(c3cn4cnc(C(=O)[C@@H]5CCCN5)c4s3)[C@H](C)[C@H]12 [Example 11, Sodium (1S,5R,6S)-6-((1R)-1-hydroxyethyl)-1-methyl-2-[7-((2S)-pyrrolidin-2-yl)carbonylimidazo[5,1-b]thiazol-2-yl]-1-carbapen-2-em-3-carboxylate] | 0.25 | – | – | – | – |
| – | – | – | – | – | – | – | – | C[C@@H](O)[C@H]1C(=O)N2C(C(=O)[O-])=C(c3cn4cnc(C(=O)c5cc(SCCN)c[n+](CC(=O)O)c5)c4s3)[C@H](C)[C@H]12 [Example 37, (1S,5R,6S)-2-[7-[5-(2-Aminoethyl)thio-1-carboxylmethylpyridinium-3-yl]carbonylimidazo[5,1-b]-thiazol-2-yl]-6-((1R)-1-hydroxyethyl)-1-methyl-1-carbapen-2-em-3-carboxylate] | – | – | 0.139 | – | – |
| 0.031 (≈ 0.0644 µM) | 0.031 (≈ 0.0644 µM) | 0.063 (≈ 0.131 µM) | 0.031 (≈ 0.0644 µM) | 0.008 (≈ 0.0166 µM) | 0.25 (≈ 0.519 µM) | 1 (≈ 2.08 µM) | 0.031 (≈ 0.0644 µM) | C[C@@H](O)[C@H]1C(=O)N2C(C(=O)[O-])=C(c3cn4cnc(C(=O)c5ccc[n+](CC(N)=O)c5)c4s3)C[C@H]12 [Example 39, (5R,6S)-2-[7-(1-Carbamoylmethylpyridinium-3-yl)carbonylimidazo[5,1-b]thiazol-2-yl]-6-((1R)-1-hydroxyethyl)-1-carbapen-2-em-3-carboxylate] | – | – | – | 0.02 | – |
| – | – | – | – | – | – | – | – | C[C@@H](O)[C@H]1C(=O)N2C(C(=O)[O-])=C(c3cn4cnc(C(=O)c5ccc[n+](CCNS(N)(=O)=O)c5)c4s3)[C@H](C)[C@H]12 [Example 65, (1S,5R,6S)-6-((1R)-1-Hydroxyethyl)-1-methyl-2-[7-[1-(2-sulfamoylaminoethyl)pyridinium-3-yl]carbonylimidazo[5,1-b]thiazol-2-yl]-1-carbapen-2-em-3-carboxylate] | – | – | – | – | 0.32 |
| – | – | – | – | – | – | – | – | CN[C@H](CC(C)C)C(=O)N[C@H]1C(=O)N[C@@H](CC(N)=O)C(=O)N[C@H]2C(=O)N[C@H]3C(=O)N[C@H](C(=O)N[C@H](C(=O)O)c4cc(O)cc(O)c4-c4cc3ccc4O)[C@H](O)c3ccc(c(Cl)c3)Oc3cc2cc(c3O[C@@H]2O[C@H](CO)[C@@H](O)[C@H](O)[C@H]2O[C@H]2C[C@](C)(N)[C@H](O)[C@H](C)O2)Oc2ccc(cc2Cl)[C@H]1O [Vancomycin, reference compound] | 0.50 | – | – | – | 0.71 |

| Compound | MIC (B. catarrhalis W-0500) [µg/mL] | MIC (E. coli NIHJ JC-2) [µg/mL] | MIC (H. influenzae PRC44) [µg/mL] | MIC (K. pneumoniae PCI602) [µg/mL] | MIC (S. aureus 209P JC-1) [µg/mL] | MIC [1] [µg/mL] | MIC [2] [µg/mL] | MIC [3] [µg/mL] | ED50 [4, 6] [mg/mouse] | survival in acute toxicity test [5] | ED50 ([4]; Amount of inoculant: 2.5 × 10^6 CFU/mouse) [mg/mouse] | ED50 ([4]; Amount of inoculant: 2.9 × 10^6 CFU/mouse) [mg/mouse] | ED50 [4, 7] [mg/mouse] |
| --- | --- | --- | --- | --- | --- | --- | --- | --- | --- | --- | --- | --- | --- |
| C[C@@H](O)[C@H]1C(=O)N2C(C(=O)[O-])=C(c3cn4cnc(C(=O)c5ccc[n+](CC(N)=O)c5)c4s3)[C@H](C)[C@H]12 [Example 2, (1S,5R,6S)-2-[7-(1-Carbamoylmethylpyridinium-3-yl)carbonylimidazo[5,1-b]thiazol-2-yl]-6-((1R)-1-hydroxyethyl)-1-methyl-1-carbapen-2-em-3-carboxylate] | 0.016 (≈ 0.0323 µM) | 0.031 (≈ 0.0626 µM) | 0.031 (≈ 0.0626 µM) | 0.063 (≈ 0.127 µM) | < 0.008 | 0.5 (≈ 1.01 µM) | 2 (≈ 4.04 µM) | 0.031 (≈ 0.0626 µM) | 0.07 | all of the mice survived | – | – | – |
